Test results taken from publication PMC10771423 (Applied Microbiology and Biotechnology, 2024).

Experiments:
AldOTf [1] = biological target: T1, AldOTf (Thermopolyspora flexuosa, UniProt A0A543IX60); experiment: oxygen consumption (oxygen electrode), steady-state kinetics; format: biochemical; settings: read-out: KM (mM) / Glycerol^b; 50 mM KPi pH 7.5, 25 °C, O2 as co-substrate
T1 construct: gene FHX40_1862
Excerpt: oxygen consumption (oxygen electrode), steady-state kinetics on AldOTf

AldOTf [2] = biological target: T1, AldOTf; experiment: HRP-coupled AAP/DCHBS H2O2 assay, […] nm, steady-state kinetics; format: biochemical; settings: read-out: KM (mM) / Xylitol^a; 50 mM KPi pH 7.5, 25 °C, O2 as co-substrate

T1 sequence (A0A543IX60 entry or part of it): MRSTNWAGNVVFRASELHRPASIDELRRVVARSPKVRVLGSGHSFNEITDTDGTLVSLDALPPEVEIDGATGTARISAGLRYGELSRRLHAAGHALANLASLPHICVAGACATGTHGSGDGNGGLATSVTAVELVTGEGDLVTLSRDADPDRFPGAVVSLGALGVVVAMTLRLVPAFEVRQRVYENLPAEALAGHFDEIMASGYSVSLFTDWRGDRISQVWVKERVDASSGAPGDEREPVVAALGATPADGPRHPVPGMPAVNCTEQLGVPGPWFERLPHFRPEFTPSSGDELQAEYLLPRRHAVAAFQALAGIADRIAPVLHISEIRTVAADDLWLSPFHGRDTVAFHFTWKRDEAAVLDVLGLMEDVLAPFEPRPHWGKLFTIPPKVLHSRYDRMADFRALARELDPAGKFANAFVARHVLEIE

Km (AldOTf [1]) [mM]	Km (AldOTf [2]) [mM]	Structure (SMILES)
41	–	OCC(O)CO [glycerol]
–	0.04	OC[C@@H](O)[C@H](O)[C@@H](O)CO [xylitol]
